According to ChEMBL document CHEMBL3351638, “Discovery of 6-[5-(4-fluorophenyl)-3-methyl-pyrazol-4-yl]-benzoxazin-3-one derivatives as novel selective nonsteroidal mineralocorticoid receptor antagonists” (Bioorg Med Chem, 2014):

Assays:
Glucocorticoid receptor = Glucocorticoid receptor (Homo sapiens, UniProt P04150); test: biochemical
Description: Displacement of [3H]-Dexamethasone from glucocorticoid receptor (unknown origin) expressed in 293 cells after 16 hrs by scintillation counting

[1] = target: T1, Mineralocorticoid receptor (Homo sapiens, UniProt P08235)
T1 sequence (P08235 whole entry): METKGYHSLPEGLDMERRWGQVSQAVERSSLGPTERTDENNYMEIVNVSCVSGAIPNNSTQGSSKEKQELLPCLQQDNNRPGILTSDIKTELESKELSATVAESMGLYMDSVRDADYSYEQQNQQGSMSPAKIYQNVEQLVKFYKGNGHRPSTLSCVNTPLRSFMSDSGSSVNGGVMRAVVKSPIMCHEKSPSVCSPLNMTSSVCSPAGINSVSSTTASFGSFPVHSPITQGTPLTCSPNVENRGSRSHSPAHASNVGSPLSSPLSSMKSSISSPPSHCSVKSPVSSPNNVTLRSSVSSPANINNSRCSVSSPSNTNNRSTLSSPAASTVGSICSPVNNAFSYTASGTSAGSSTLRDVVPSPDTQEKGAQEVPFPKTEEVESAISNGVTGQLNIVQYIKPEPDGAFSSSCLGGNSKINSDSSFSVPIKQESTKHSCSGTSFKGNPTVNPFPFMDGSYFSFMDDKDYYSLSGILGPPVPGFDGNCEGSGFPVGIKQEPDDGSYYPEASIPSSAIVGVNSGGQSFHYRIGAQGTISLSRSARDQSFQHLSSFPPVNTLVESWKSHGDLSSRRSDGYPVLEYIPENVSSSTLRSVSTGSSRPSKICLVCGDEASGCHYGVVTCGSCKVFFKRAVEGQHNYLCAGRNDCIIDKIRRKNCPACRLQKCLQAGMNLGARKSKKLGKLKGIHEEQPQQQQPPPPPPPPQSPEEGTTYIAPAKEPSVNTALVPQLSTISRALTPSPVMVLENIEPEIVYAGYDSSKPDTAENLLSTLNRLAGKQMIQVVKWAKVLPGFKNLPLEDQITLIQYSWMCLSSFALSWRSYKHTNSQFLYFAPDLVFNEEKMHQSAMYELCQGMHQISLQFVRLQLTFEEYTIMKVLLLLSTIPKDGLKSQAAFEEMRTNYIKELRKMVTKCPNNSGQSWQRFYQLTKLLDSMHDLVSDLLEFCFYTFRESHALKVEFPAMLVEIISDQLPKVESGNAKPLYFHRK
Description: Antagonist activity at human mineralocorticoid receptor expressed in COS1 cells after 1 day by luciferase reporter gene assay

Progesterone receptor = target: T2, Progesterone receptor (Homo sapiens, UniProt P06401); test: Displacement of [[3H]-Progesterone from progesterone receptor (unknown origin) expressed in 293 cells after 16 hrs by scintillation counting; format: cell-based
T2 sequence (P06401 whole entry): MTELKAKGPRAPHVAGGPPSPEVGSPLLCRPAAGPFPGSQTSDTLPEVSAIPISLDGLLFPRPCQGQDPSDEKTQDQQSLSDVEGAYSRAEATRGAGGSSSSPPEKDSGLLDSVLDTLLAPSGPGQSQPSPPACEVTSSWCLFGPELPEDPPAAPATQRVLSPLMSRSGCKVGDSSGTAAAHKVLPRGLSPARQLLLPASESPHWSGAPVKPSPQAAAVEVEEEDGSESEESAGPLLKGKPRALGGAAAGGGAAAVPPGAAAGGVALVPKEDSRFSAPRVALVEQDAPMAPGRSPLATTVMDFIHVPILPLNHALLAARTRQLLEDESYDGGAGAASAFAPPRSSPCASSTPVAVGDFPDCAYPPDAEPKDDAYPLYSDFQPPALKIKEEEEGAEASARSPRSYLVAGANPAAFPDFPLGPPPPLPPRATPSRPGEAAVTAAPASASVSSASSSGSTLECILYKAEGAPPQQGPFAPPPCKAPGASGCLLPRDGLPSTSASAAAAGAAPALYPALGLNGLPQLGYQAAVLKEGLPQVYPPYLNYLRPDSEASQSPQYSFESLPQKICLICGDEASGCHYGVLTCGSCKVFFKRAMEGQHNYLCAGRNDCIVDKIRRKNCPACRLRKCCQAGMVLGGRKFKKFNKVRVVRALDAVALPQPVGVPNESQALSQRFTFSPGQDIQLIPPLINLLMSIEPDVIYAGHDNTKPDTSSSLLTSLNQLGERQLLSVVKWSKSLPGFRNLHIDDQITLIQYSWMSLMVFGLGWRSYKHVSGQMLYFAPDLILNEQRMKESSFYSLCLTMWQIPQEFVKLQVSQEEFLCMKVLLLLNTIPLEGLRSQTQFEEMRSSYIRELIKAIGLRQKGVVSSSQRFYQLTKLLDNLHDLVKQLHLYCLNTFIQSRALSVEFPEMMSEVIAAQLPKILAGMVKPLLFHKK

[2] = target: T1, Mineralocorticoid receptor; test: biochemical
Description: Displacement of [3H]aldosterone from human mineralocorticoid receptor expressed in 293 cells after 16 hrs by scintillation counting

Androgen receptor = target: T3, Androgen receptor (Homo sapiens, UniProt P10275); test: biochemical
T3 sequence (P10275 whole entry): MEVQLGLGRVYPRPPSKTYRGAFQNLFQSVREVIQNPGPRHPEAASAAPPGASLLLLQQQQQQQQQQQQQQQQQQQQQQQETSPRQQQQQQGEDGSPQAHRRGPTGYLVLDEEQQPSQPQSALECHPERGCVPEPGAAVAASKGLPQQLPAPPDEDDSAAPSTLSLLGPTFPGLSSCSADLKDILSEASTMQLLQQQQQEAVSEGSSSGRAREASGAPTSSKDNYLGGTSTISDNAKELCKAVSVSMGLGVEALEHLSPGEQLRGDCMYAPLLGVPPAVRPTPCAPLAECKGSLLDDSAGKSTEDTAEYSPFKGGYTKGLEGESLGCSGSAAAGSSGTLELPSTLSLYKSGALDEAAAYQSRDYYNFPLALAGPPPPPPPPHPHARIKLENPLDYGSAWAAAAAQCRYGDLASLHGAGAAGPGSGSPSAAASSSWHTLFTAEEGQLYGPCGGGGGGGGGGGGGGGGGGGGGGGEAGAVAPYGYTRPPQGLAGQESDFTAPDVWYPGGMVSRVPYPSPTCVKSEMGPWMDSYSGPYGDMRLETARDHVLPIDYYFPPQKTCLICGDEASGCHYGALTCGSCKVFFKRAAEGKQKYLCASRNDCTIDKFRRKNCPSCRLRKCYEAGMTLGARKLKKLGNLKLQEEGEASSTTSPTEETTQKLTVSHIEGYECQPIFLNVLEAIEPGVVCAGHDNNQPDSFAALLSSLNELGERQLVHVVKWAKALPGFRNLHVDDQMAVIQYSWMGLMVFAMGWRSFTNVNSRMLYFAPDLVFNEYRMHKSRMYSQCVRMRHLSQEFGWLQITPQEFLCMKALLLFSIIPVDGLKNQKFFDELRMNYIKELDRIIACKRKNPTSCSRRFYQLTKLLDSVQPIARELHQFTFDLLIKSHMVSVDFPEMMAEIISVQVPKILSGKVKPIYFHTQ
Description: Displacement of [3H]testosterone from androgen receptor (unknown origin) expressed in 293 cells after 16 hrs by scintillation counting

[3] = Lipophilicity, log D of the compound at pH 7.4 by HPLC analysis; format: physicochemical; details: buffer

Chain of Glucocorticoid receptor (P04150 whole entry, looked up): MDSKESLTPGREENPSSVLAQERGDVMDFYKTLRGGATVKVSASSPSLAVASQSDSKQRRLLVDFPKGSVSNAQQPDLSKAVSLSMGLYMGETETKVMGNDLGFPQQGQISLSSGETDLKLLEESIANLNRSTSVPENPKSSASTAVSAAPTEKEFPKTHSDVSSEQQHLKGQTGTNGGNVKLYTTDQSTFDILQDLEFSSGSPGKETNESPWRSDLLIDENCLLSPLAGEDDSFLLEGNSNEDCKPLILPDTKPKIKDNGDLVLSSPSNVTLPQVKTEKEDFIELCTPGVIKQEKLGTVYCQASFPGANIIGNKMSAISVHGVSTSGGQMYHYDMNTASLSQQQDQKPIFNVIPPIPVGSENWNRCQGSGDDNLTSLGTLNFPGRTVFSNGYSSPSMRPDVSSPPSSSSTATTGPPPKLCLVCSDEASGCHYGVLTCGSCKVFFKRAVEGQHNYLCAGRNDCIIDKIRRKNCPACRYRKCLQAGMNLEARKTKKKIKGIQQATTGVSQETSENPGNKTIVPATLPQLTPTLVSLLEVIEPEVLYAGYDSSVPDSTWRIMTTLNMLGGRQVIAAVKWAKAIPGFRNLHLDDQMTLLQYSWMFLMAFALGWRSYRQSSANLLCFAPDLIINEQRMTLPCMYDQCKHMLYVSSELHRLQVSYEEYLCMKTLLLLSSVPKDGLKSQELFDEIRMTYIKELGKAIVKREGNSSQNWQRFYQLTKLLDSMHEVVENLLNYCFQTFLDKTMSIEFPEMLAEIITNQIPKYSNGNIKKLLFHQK

SMILES	IC50 (Glucocorticoid receptor) [nM]	IC50 [1] [nM]	IC50 (Progesterone receptor) [nM]	IC50 [2] [nM]	IC50 (Androgen receptor) [nM]	logD [3]
Cc1nn(CCNS(C)(=O)=O)c(-c2ccc(F)cc2)c1-c1ccc2c(c1)NC(=O)CO2	> 10000	2000	> 10000	250	> 10000	1.7
Cc1nn(Cc2ccccn2)c(-c2ccc(F)cc2)c1-c1ccc2c(c1)NC(=O)CO2	> 10000	990	> 10000	2800	> 10000	2.45
CCn1nc(C)c(-c2ccc3c(c2)NC(=O)CO3)c1-c1ccc(F)cc1	5600	950	> 10000	510	> 10000	–
Cc1[nH]nc(-c2ccc3c(c2)NC(=O)CO3)c1-c1ccc(F)cc1	> 10000	–	1600	3700	> 10000	–
Cc1nn(CCCO)c(-c2ccc(F)cc2)c1-c1ccc2c(c1)NC(=O)CO2	> 10000	680	> 10000	440	> 10000	1.99
Cc1cc(C2=C(c3ccc(F)cc3)C(=O)NC2C)cc2c1OCC(=O)N2 (centres undefined)	–	–	> 10000	–	> 10000	–
Cc1onc(-c2ccc3c(c2)NC(=O)CO3)c1-c1ccc(F)cc1	> 10000	1400	> 10000	710	> 10000	–
Cc1nn(C)c(-c2ccc(F)cc2F)c1-c1ccc2c(c1)NC(=O)CO2	2300	600	9300	190	> 10000	–
Cc1nn(-c2ccccc2)c(-c2ccc(F)cc2)c1-c1ccc2c(c1)NC(=O)CO2	–	–	–	> 10000	–	–
Cc1nn(Cc2ccncc2)c(-c2ccc(F)cc2)c1-c1ccc2c(c1)NC(=O)CO2	> 10000	430	> 10000	520	> 10000	2.2
Cn1ncc(-c2ccc3c(c2)NC(=O)CO3)c1-c1ccc(F)cc1	> 10000	170	> 10000	290	> 10000	–
CC(=O)NCCn1nc(C)c(-c2ccc3c(c2)NC(=O)CO3)c1-c1ccc(F)cc1	–	–	–	> 10000	–	–

Results, then the molecule that gave them:

IC50 (Glucocorticoid receptor) [nM]	IC50 [1] [nM]	IC50 (Progesterone receptor) [nM]	IC50 [2] [nM]	IC50 (Androgen receptor) [nM]	logD [3]	SMILES
630	64	2000	100	5600	–	Cc1nn(Cc2ccccc2)c(-c2ccc(F)cc2)c1-c1ccc2c(c1)NC(=O)CO2
1100	33	6800	8.4	> 10000	–	Cc1nn(CCCC(F)(F)F)c(-c2ccc(F)cc2)c1-c1ccc2c(c1)NC(=O)CO2
390	49	4300	60	3700	–	Cc1nn(CC(C)C)c(-c2ccc(F)cc2)c1-c1ccc2c(c1)NC(=O)CO2
3200	160	9800	110	> 10000	2.51	Cc1nn(C)c(-c2ccc(F)cc2)c1-c1ccc2c(c1)NC(=O)CO2
5400	130	> 10000	75	> 10000	2.16	Cc1nn(CCCCO)c(-c2ccc(F)cc2)c1-c1ccc2c(c1)NC(=O)CO2
1400	45	4000	22	3600	–	CCCCn1nc(C)c(-c2ccc3c(c2)NC(=O)CO3)c1-c1ccc(F)cc1
1600	180	5700	81	> 10000	–	CCCn1nc(C)c(-c2ccc3c(c2)NC(=O)CO3)c1-c1ccc(F)cc1
2500	350	> 10000	150	> 10000	–	Cc1cc(-c2c(C)nn(C)c2-c2ccc(F)cc2)cc2c1OCC(=O)N2
370	18	4000	10	9200	–	Cc1nn(CCC(C)(F)F)c(-c2ccc(F)cc2)c1-c1ccc2c(c1)NC(=O)CO2
